Converted amounts (≈) assume the structure as drawn.
Legend:
Type in all cases: functional
Pseudomonas aeruginosa = test: Antibacterial activity against Pseudomonas aeruginosa ATCC2785 assessed as bacterial growth inhibition after 24 hrs by broth dilution method; settings: ATCC2785, 24 h
[1] = test system: Staphylococcus epidermidis; test: Antibacterial activity against Staphylococcus epidermidis ATCC12228 assessed as bacterial growth inhibition after 24 hrs by broth dilution method; settings: ATCC12228, 24 h
Staphylococcus aureus [2] = test: Antibacterial activity against methicillin-resistant Staphylococcus aureus ATCC52056 assessed as bacterial growth inhibition after 24 hrs by broth dilution method; settings: ATCC52056, 24 h
Staphylococcus aureus [3] = test: Antibacterial activity against methicillin-resistant Staphylococcus aureus ATCC62202 assessed as bacterial growth inhibition after 24 hrs by broth dilution method; settings: ATCC62202, 24 h
Staphylococcus aureus [4] = test: Antibacterial activity against Staphylococcus aureus ATCC25923 assessed as bacterial growth inhibition after 24 hrs by broth dilution method; settings: ATCC25923, 24 h
Escherichia coli = test: Antibacterial activity against Escherichia coli ATCC25922 assessed as bacterial growth inhibition after 24 hrs by broth dilution method; settings: ATCC25922, 24 h
Proteus vulgaris = test: Antibacterial activity against Proteus vulgaris ATCC49101 assessed as bacterial growth inhibition after 24 hrs by broth dilution method; settings: ATCC49101, 24 h
Staphylococcus aureus [5] = test: Antibacterial activity against methicillin-resistant Staphylococcus aureus ATCC51033 assessed as bacterial growth inhibition after 24 hrs by broth dilution method; settings: ATCC51033, 24 h
Staphylococcus aureus [6] = test: Antibacterial activity against methicillin-resistant Staphylococcus aureus ATCC513045 assessed as bacterial growth inhibition after 24 hrs by broth dilution method; settings: ATCC513045, 24 h
Staphylococcus aureus [7] = test: Antibacterial activity against methicillin-resistant Staphylococcus aureus ATCC425055 assessed as bacterial growth inhibition after 24 hrs by broth dilution method; settings: ATCC425055, 24 h
Staphylococcus aureus [8] = test: Antibacterial activity against methicillin-resistant Staphylococcus aureus ATCC523512 assessed as bacterial growth inhibition after 24 hrs by broth dilution method; settings: ATCC523512, 24 h
Staphylococcus aureus [9] = test: Antibacterial activity against methicillin-resistant Staphylococcus aureus ATCC515992 assessed as bacterial growth inhibition after 24 hrs by broth dilution method; settings: ATCC515992, 24 h
Staphylococcus aureus [10] = test: Antibacterial activity against methicillin-resistant Staphylococcus aureus ATCC43300 assessed as bacterial growth inhibition after 24 hrs by broth dilution method; settings: ATCC43300, 24 h
Bacillus subtilis = test: Antibacterial activity against Bacillus subtilis ATCC6633 assessed as bacterial growth inhibition after 24 hrs by broth dilution method; settings: ATCC6633, 24 h
Staphylococcus aureus [11] = test: Antibacterial activity against methicillin-resistant Staphylococcus aureus ATCC510019 assessed as bacterial growth inhibition after 24 hrs by broth dilution method; settings: ATCC510019, 24 h

Structure (SMILES) | MIC (Pseudomonas aeruginosa) | MIC [1] | MIC (Staphylococcus aureus [2]) | MIC (Staphylococcus aureus [3]) | MIC (Staphylococcus aureus [4]) | MIC (Escherichia coli) | MIC (Proteus vulgaris) | MIC (Staphylococcus aureus [5]) | MIC (Staphylococcus aureus [6]) | MIC (Staphylococcus aureus [7]) | MIC (Staphylococcus aureus [8]) | MIC (Staphylococcus aureus [9]) | MIC (Staphylococcus aureus [10]) | MIC (Bacillus subtilis) | MIC (Staphylococcus aureus [11])
COC(=O)c1c(O)cc(OC)cc1/C=C/c1ccccc1F | 128 µg/mL (≈ 423 µM) | 128 µg/mL (≈ 423 µM) | > 128 µg/mL | > 128 µg/mL | > 128 µg/mL | > 128 µg/mL | > 128 µg/mL | > 128 µg/mL | > 128 µg/mL | > 128 µg/mL | > 128 µg/mL | > 128 µg/mL | > 128 µg/mL | 128 µg/mL (≈ 423 µM) | > 128 µg/mL
COC(=O)c1c(O)cc(OC)cc1/C=C/c1cccc(F)c1 | 128 µg/mL (≈ 423 µM) | 128 µg/mL (≈ 423 µM) | > 128 µg/mL | > 128 µg/mL | > 128 µg/mL | 128 µg/mL (≈ 423 µM) | > 128 µg/mL | > 128 µg/mL | > 128 µg/mL | > 128 µg/mL | > 128 µg/mL | > 128 µg/mL | > 128 µg/mL | 128 µg/mL (≈ 423 µM) | 128 µg/mL (≈ 423 µM)
COC(=O)c1c(O)cc(OC)cc1/C=C/c1ccc(F)cc1 | > 128 µg/mL | > 128 µg/mL | > 128 µg/mL | > 128 µg/mL | > 128 µg/mL | > 128 µg/mL | > 128 µg/mL | > 128 µg/mL | > 128 µg/mL | > 128 µg/mL | > 128 µg/mL | 128 µg/mL (≈ 423 µM) | > 128 µg/mL | > 128 µg/mL | > 128 µg/mL
COC(=O)c1c(O)cc(OC)cc1/C=C/c1ccc(Cl)cc1 | > 128 µg/mL | > 128 µg/mL | > 128 µg/mL | 128 µg/mL (≈ 402 µM) | > 128 µg/mL | > 128 µg/mL | > 128 µg/mL | > 128 µg/mL | > 128 µg/mL | > 128 µg/mL | > 128 µg/mL | > 128 µg/mL | > 128 µg/mL | 128 µg/mL (≈ 402 µM) | > 128 µg/mL
COC(=O)c1c(O)cc(OC)cc1/C=C/c1ccc(OC)cc1 | 128 µg/mL (≈ 407 µM) | > 128 µg/mL | > 128 µg/mL | > 128 µg/mL | > 128 µg/mL | > 128 µg/mL | > 128 µg/mL | > 128 µg/mL | > 128 µg/mL | > 128 µg/mL | > 128 µg/mL | > 128 µg/mL | > 128 µg/mL | > 128 µg/mL | 128 µg/mL (≈ 407 µM)
COC(=O)c1c(O)cc(OC)cc1/C=C/c1ccc(C)cc1 | > 128 µg/mL | > 128 µg/mL | > 128 µg/mL | > 128 µg/mL | > 128 µg/mL | > 128 µg/mL | > 128 µg/mL | 128 µg/mL (≈ 429 µM) | > 128 µg/mL | 128 µg/mL (≈ 429 µM) | > 128 µg/mL | > 128 µg/mL | > 128 µg/mL | > 128 µg/mL | > 128 µg/mL
COC(=O)c1c(O)cc(OC)cc1/C=C/c1cc(OC)c(OC)c(OC)c1 | > 128 µg/mL | > 128 µg/mL | > 128 µg/mL | > 128 µg/mL | > 128 µg/mL | > 128 µg/mL | > 128 µg/mL | 128 µg/mL (≈ 342 µM) | > 128 µg/mL | > 128 µg/mL | > 128 µg/mL | 64 µg/mL (≈ 171 µM) | > 128 µg/mL | > 128 µg/mL | > 128 µg/mL
COC(=O)c1c(O)cc(OC)cc1/C=C/c1cccc(C#N)c1 | > 128 µg/mL | > 128 µg/mL | > 128 µg/mL | > 128 µg/mL | > 128 µg/mL | > 128 µg/mL | > 128 µg/mL | 128 µg/mL (≈ 414 µM) | > 128 µg/mL | > 128 µg/mL | > 128 µg/mL | 64 µg/mL (≈ 207 µM) | > 128 µg/mL | > 128 µg/mL | > 128 µg/mL
COC(=O)c1c(O)cc(OC)cc1/C=C/c1ccc(C(F)(F)F)cc1 | > 128 µg/mL | 128 µg/mL (≈ 363 µM) | > 128 µg/mL | > 128 µg/mL | > 128 µg/mL | > 128 µg/mL | > 128 µg/mL | > 128 µg/mL | 128 µg/mL (≈ 363 µM) | > 128 µg/mL | > 128 µg/mL | > 128 µg/mL | > 128 µg/mL | > 128 µg/mL | > 128 µg/mL
COC(=O)c1c(O)cc(OC)cc1/C=C/c1ccc(F)cc1F | > 128 µg/mL | > 128 µg/mL | > 128 µg/mL | > 128 µg/mL | > 128 µg/mL | > 128 µg/mL | > 128 µg/mL | 128 µg/mL (≈ 400 µM) | > 128 µg/mL | 128 µg/mL (≈ 400 µM) | > 128 µg/mL | > 128 µg/mL | 128 µg/mL (≈ 400 µM) | > 128 µg/mL | > 128 µg/mL
COc1cc(O)c(C(=O)O)c(/C=C/c2ccccc2)c1 | > 128 µg/mL | > 128 µg/mL | 128 µg/mL (≈ 474 µM) | 128 µg/mL (≈ 474 µM) | > 128 µg/mL | > 128 µg/mL | > 128 µg/mL | > 128 µg/mL | > 128 µg/mL | > 128 µg/mL | > 128 µg/mL | > 128 µg/mL | > 128 µg/mL | 64 µg/mL (≈ 237 µM) | > 128 µg/mL
CCn1cc(C(=O)O)c(=O)c2cc(F)c(N3CCNCC3)cc21 [NORFLOXACIN] | 16 µg/mL (≈ 50.1 µM) | 2 µg/mL (≈ 6.26 µM) | 8 µg/mL (≈ 25.1 µM) | 8 µg/mL (≈ 25.1 µM) | 2 µg/mL (≈ 6.26 µM) | 32 µg/mL (≈ 100 µM) | 16 µg/mL (≈ 50.1 µM) | 4 µg/mL (≈ 12.5 µM) | 4 µg/mL (≈ 12.5 µM) | 4 µg/mL (≈ 12.5 µM) | 8 µg/mL (≈ 25.1 µM) | 16 µg/mL (≈ 50.1 µM) | 4 µg/mL (≈ 12.5 µM) | 2 µg/mL (≈ 6.26 µM) | 8 µg/mL (≈ 25.1 µM)
CC1(C)S[C@@H]2[C@H](NC(=O)Cc3ccccc3)C(=O)N2[C@H]1C(=O)O [PENICILLIN G] | 16 µg/mL (≈ 47.8 µM) | 2 µg/mL (≈ 5.98 µM) | 64 µg/mL (≈ 191 µM) | 32 µg/mL (≈ 95.7 µM) | 2 µg/mL (≈ 5.98 µM) | 64 µg/mL (≈ 191 µM) | > 16 µg/mL | 32 µg/mL (≈ 95.7 µM) | 32 µg/mL (≈ 95.7 µM) | 32 µg/mL (≈ 95.7 µM) | 32 µg/mL (≈ 95.7 µM) | 32 µg/mL (≈ 95.7 µM) | 32 µg/mL (≈ 95.7 µM) | 2 µg/mL (≈ 5.98 µM) | 32 µg/mL (≈ 95.7 µM)
